Data as given in paper PMC8571713 (Experimental neurology, 2021).

How the values were obtained:
[1] = target: T1, hSARM1 (human SARM1) (Homo sapiens, UniProt Q6SZW1); assay: STD NMR with NMN competition; format: biochemical
T1 sequence (Q6SZW1 28-724): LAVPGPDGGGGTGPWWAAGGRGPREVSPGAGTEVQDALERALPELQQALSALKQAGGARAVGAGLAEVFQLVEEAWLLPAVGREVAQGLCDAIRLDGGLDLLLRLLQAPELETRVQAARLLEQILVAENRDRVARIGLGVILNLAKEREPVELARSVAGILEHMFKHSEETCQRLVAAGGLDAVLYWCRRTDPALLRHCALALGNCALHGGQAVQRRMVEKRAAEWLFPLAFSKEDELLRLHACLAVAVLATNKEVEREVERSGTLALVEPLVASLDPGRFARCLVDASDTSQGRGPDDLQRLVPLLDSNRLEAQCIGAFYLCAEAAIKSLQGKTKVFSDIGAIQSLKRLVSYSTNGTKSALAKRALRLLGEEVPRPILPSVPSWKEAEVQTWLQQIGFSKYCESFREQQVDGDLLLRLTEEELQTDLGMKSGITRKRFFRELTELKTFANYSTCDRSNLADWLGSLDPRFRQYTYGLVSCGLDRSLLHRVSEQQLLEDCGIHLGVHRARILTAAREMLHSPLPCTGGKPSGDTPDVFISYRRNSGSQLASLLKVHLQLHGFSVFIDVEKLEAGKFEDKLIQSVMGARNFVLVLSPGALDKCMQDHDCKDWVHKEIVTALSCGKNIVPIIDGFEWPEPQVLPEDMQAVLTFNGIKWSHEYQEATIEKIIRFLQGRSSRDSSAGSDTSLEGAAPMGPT

[2] = target: T2, dSARM1 ARM (Drosophila SARM1 ARM domain) (Drosophila melanogaster, UniProt Q6IDD9); assay: crystal structure; format: binding
T2 sequence (Q6IDD9 315-678): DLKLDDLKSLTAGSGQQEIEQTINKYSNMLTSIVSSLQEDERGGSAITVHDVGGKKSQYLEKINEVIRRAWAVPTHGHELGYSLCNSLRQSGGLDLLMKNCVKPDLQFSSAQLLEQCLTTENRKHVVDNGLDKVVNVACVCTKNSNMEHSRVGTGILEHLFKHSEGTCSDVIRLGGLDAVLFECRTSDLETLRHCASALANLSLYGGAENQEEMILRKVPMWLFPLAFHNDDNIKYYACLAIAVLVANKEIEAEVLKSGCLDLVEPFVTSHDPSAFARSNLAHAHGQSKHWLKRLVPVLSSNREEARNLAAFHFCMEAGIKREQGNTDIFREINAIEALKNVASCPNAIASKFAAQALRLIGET

O=C([O-])c1ccc[n+]([C@@H]2O[C@H](COP(=O)(O)O)[C@@H](O)[C@H]2O)c1 [NaMN, nicotinic acid mononucleotide]
IC50 [1]: 93.3 µM
crystal structure (3.31 Å, soaking with 20 mM NaMN); STD NMR [2]: we determined the crystal structure of the NaMN-bound ARM domain of Drosophila SARM1 (dSARM1ARM) (PDB: 7RTC
